In ChEMBL document CHEMBL2390887, “Pyrazole derivatives as inhibitors of arachidonic acid-induced platelet aggregation” (Eur J Med Chem, 2013):
The source made the active and inactive calls. The rule behind the calls is not given here.

System: not listed separately
Test: Antiplatelet activity in human platelet rich plasma assessed as inhibition of arachidonic acid-induced platelet aggregation preincubated for 3 mins before arachidonic acid challenge by turbidimetric method
Type: functional

| Compound | IC50 [nM] |
| --- | --- |
| COc1ccc(-n2nc(C(=O)N3CCOCC3)cc2-c2ccc(Cl)cc2)nn1 | 83 |
| COc1ccc(-n2nc(C(=O)N3CCOCC3)cc2-c2ccc(Cl)cc2)cc1 | 7.3 |
| COc1ccc(-n2nc(C(=O)N3CCCCC3)cc2-c2ccc(Cl)cc2)nn1 | 41 |
| COc1ccc(-n2nc(C(=O)N3CCCC3)cc2-c2ccc(Cl)cc2)cc1 | 5.7 |
| COc1ccc(-n2nc(CCC(=O)N3CCOCC3)cc2-c2ccc(Cl)cc2)nn1 | 1080 |
| COc1ccc(-n2nc(C(=O)Nc3ccc(Cl)cc3)cc2-c2ccc(Cl)cc2)nn1 | 610 |
| O=C(c1cc(-c2ccc(Cl)cc2)n(-c2ccc(=O)[nH]n2)n1)N1CCOCC1 | 12600 |
| Cn1nc(-c2ccc(Cl)cc2)cc1C(=O)N1CCOCC1 | > 10000 |
| COc1ccc(-n2nc(CCC(=O)N3CCCCC3)cc2-c2ccc(Cl)cc2)nn1 | 920 |
| COc1ccc(-n2nc(C(=O)Nc3ccncc3)cc2-c2ccc(Cl)cc2)nn1 | 110 |
| CS(=O)(=O)c1ccc(-n2nc(C(=O)N3CCCCC3)cc2-c2ccc(Cl)cc2)nn1 | 19600 |
| COc1ccc2c(c1)c(CC(=O)O)c(C)n2C(=O)c1ccc(Cl)cc1 [INDOMETHACIN] | 1620 |
| COc1ccc(-n2nc(C(=O)N3CCCCC3)cc2C)nn1 | > 10000 |
| COc1ccc(-n2nc(C(=O)N3CCN(c4ccc(C(F)(F)F)cn4)CC3)cc2-c2ccc(Cl)cc2)nn1 | 5490 |
| O=C(c1cc(-c2ccc(Cl)cc2)n[nH]1)N1CCCCC1 | > 10000 |
| COc1ccc(-c2onc(C(=O)N3CCOCC3)c2-c2ccc(Cl)cc2)cc1 | 18400 |
| CS(=O)(=O)c1ccc(-n2nc(C(=O)N3CCOCC3)cc2-c2ccc(Cl)cc2)nn1 | > 20000 |
| COc1ccc(-n2nc(C(=O)N3CCCC3)cc2-c2ccc(Cl)cc2)nn1 | 15 |
| O=C(c1cc(-c2ccc(Cl)cc2)n[nH]1)N1CCOCC1 | > 10000 |

System: not listed separately
Test: (§1) Antiplatelet activity in human platelet rich plasma assessed as inhibition of ADP-induced platelet aggregation at 10 uM preincubated for 3 mins before ADP challenge by turbidimetric method
Type: functional

| Compound | inhibition at 10 µM [%] |
| --- | --- |
| COc1ccc(-n2nc(C(=O)N3CCOCC3)cc2-c2ccc(Cl)cc2)nn1 | 11.3 |
| COc1ccc(-n2nc(C(=O)Nc3ccc(Cl)cc3)cc2-c2ccc(Cl)cc2)nn1 | 7.93 |
| COc1ccc(-n2nc(C(=O)Nc3ccncc3)cc2-c2ccc(Cl)cc2)nn1 | 8.14 |
| COc1ccc(-n2nc(C(=O)N3CCN(c4ccc(C(F)(F)F)cn4)CC3)cc2-c2ccc(Cl)cc2)nn1 | 6.8 |

System: Platelet
Test: as §1
Type: functional

| Compound | inhibition |
| --- | --- |
| COc1ccc(-n2nc(C(=O)N3CCCCC3)cc2-c2ccc(Cl)cc2)nn1 | inactive |

System: not listed separately
Test: Antiplatelet activity in human platelet rich plasma assessed as inhibition of collagen-induced platelet aggregation at 1 uM preincubated for 3 mins before collagen challenge by turbidimetric method
Type: functional

| Compound | inhibition at 1 µM [%] |
| --- | --- |
| COc1ccc(-n2nc(C(=O)N3CCOCC3)cc2-c2ccc(Cl)cc2)nn1 | 74.2 |
| COc1ccc(-n2nc(C(=O)N3CCCCC3)cc2-c2ccc(Cl)cc2)nn1 | 76.8 |
| COc1ccc(-n2nc(C(=O)Nc3ccc(Cl)cc3)cc2-c2ccc(Cl)cc2)nn1 | 25.7 |
| COc1ccc(-n2nc(C(=O)Nc3ccncc3)cc2-c2ccc(Cl)cc2)nn1 | 77.6 |

System: not listed separately
Test: Antiplatelet activity in human platelet rich plasma assessed as inhibition of arachidonic acid-induced platelet aggregation at 1 uM preincubated for 3 mins before arachidonic acid challenge by turbidimetric method
Type: functional

| Compound | inhibition at 1 µM [%] |
| --- | --- |
| COc1ccc(-n2nc(C(=O)N3CCOCC3)cc2-c2ccc(Cl)cc2)nn1 | 92.7 |
| COc1ccc(-n2nc(C(=O)N3CCCCC3)cc2-c2ccc(Cl)cc2)nn1 | 92.9 |
| COc1ccc(-n2nc(C(=O)Nc3ccc(Cl)cc3)cc2-c2ccc(Cl)cc2)nn1 | 80.9 |
| COc1ccc(-n2nc(C(=O)Nc3ccncc3)cc2-c2ccc(Cl)cc2)nn1 | 84.9 |
| COc1ccc(-n2nc(C(=O)N3CCN(c4ccc(C(F)(F)F)cn4)CC3)cc2-c2ccc(Cl)cc2)nn1 | 10.9 |

System: not listed separately
Test: Antiplatelet activity in human platelet rich plasma assessed as inhibition of arachidonic acid-induced platelet aggregation at 10 uM preincubated for 3 mins before arachidonic acid challenge by turbidimetric method
Type: functional

| Compound | inhibition at 10 µM [%] |
| --- | --- |
| COc1ccc(-n2nc(C(=O)N3CCOCC3)cc2-c2ccc(Cl)cc2)nn1 | 94.8 |
| COc1ccc(-n2nc(C(=O)N3CCCCC3)cc2-c2ccc(Cl)cc2)nn1 | 94.8 |
| COc1ccc(-n2nc(C(=O)Nc3ccc(Cl)cc3)cc2-c2ccc(Cl)cc2)nn1 | 74.3 |
| COc1ccc(-n2nc(C(=O)Nc3ccncc3)cc2-c2ccc(Cl)cc2)nn1 | 80.5 |
| COc1ccc(-n2nc(C(=O)N3CCN(c4ccc(C(F)(F)F)cn4)CC3)cc2-c2ccc(Cl)cc2)nn1 | 65.5 |

System: not listed separately
Test: Antiplatelet activity in human platelet rich plasma assessed as inhibition of collagen-induced platelet aggregation at 10 uM preincubated for 3 mins before collagen challenge by turbidimetric method
Type: functional

| Compound | inhibition at 10 µM [%] |
| --- | --- |
| COc1ccc(-n2nc(C(=O)N3CCOCC3)cc2-c2ccc(Cl)cc2)nn1 | 70.9 |
| COc1ccc(-n2nc(C(=O)N3CCCCC3)cc2-c2ccc(Cl)cc2)nn1 | 71.1 |
| COc1ccc(-n2nc(C(=O)Nc3ccc(Cl)cc3)cc2-c2ccc(Cl)cc2)nn1 | 70.5 |
| COc1ccc(-n2nc(C(=O)Nc3ccncc3)cc2-c2ccc(Cl)cc2)nn1 | 73.6 |
| COc1ccc(-n2nc(C(=O)N3CCN(c4ccc(C(F)(F)F)cn4)CC3)cc2-c2ccc(Cl)cc2)nn1 | 16 |
